Experimental findings from patent US10131691B2, “Compositions and methods for specific regulation of pyruvate dehydrogenase kinase” (THE BOARD OF TRUSTEES OF THE LELAND STANFORD JUNIOR …, priority 2011, dated 2018) are described below.

Experiment [1] deals with fibroblasts derived from δPKC knock-out mice. As to the kind of experiment: MARCKS phosphorylation in fibroblasts from δPKC knock-out mice. Type of experiment: cell-based, mouse. The note with it: fibroblasts lacking δPKC. The source says: Fibroblasts were isolated from wild-type or δPKC knockout mice (provided by Dr. Robert Messing, Gallo Center, UCSF) as previously described (Disatnik et al., 2004, J. Cell Sci., 117:4469-4479) and maintained in 20% fetal bovine serum.
Phosphorylation of myristoylated alanine-rich C kinase substrate (MARCKS), a ubiquitous PKC substrate, was monitored by Western blot of total cell lysates, using anti-phosphorylated MARCKS (Cell Signaling, Danvers, Mass.). Anti-MARCKS and anti-δPKC antibodies were obtained from Santa Cruz Biotechnology (Santa Cruz Biotechnology, CA, USA).
The ΨPDK sequence is found both in PDK and in the PDK-cognate protein, δPKC. It was therefore predicted that ΨPDK mimics inhibitory intra-molecular interaction, and, similar to ΨδRACK, ΨPDK should compete with the inhibitory interaction of PDK and δPKC, and increase δPKC-mediated functions (FIG. 1A). Phosphorylation of myristoylated alanine-rich C-kinase substrate (MARCKS) was used as a marker of PKC activity (Disatnik et al., 2004, J. Cell. Sci., 117:4469-4479). […] To determine the selectivity of the peptides for δPKC, fibroblasts derived from δPKC knock-out mice were also used.

A further experiment concerns the target T1, δPKC (Homo sapiens, UniProt Q05655).
T1 construct: purchased Invitrogen
The experiment in a line: Proteinase K sensitivity of recombinant δPKC. The settings on record: non-TAT conjugated peptide; vs no peptide or control peptide ΨδRACK. Type of experiment: binding. The procedure:
Human recombinant δPKC (Invitrogen, Calif., USA; 50 ng; 0.625 pmole) was incubated with ΨPDK (non-TAT conjugated, 1 nmole) prior to addition of proteinase K (0.05 μg/ml) in 20 mM Tris-HCl, pH 7.4 containing 1 μM DTT. The reaction was stopped as indicated by adding 5 mM PMSF.
Since ΨPDK is derived from a PDK-like sequence in δPKC (FIG. 1B), it was reasoned that this peptide should act as a competitive inhibitor, selective for δPKC phosphorylation of PDK. To test this hypothesis directly, an in vitro kinase assay in which the ability of δPKC to phosphorylate PDK is determined was used.

For another experiment, the system named is ALDH2. As to the kind of experiment: 2-D IEF phosphorylation of ALDH2 in hearts after I/R. Details: species or system rat. The note with it: cardiac I/R. The procedure:
(§1) An ex vivo model of acute ischemic heart damage was used, which involves a 30 min equilibration period, followed by 30 min of global ischemia, which in turn is followed by 60 min of reperfusion. The hearts were perfused with 1 μM TAT or TAT-conjugated peptide. Normoxic control hearts were subjected to 90 min perfusion in the absence of ischemia. Coronary effluent was collected to determine creatine phosphokinase (CPK) release during the first 30 min of the reperfusion period. At the end of the reperfusion period, hearts were sliced into 1-mm-thick transverse sections and incubated in triphenyltetrazolium chloride solution (TTC, 1% in phosphate buffer, pH 7.4) at 37° C. for 15 min. Infarct size was expressed as a percentage of the risk zone (equivalent to total LV muscle mass) (methods described in Brandman et al., 2007, J. Biol. Chem., 282:4113-4123; Inagaki et al., 2003, Circulation, 108:869-875).
2-D IEF/SDS polyacrylamide gel electrophoresis using rat heart samples was performed as previously described (Chen et al., 2008, Science, 321:1493-1495). 10% SDS gel electrophoresis and Western blotting were carried out by standard methods using PDK2 c-term rabbit (Abgent, Calif., USA), PDH subunit E1 alpha monoclonal (Invitrogen, Calif., USA) and ALDH2 goat (Santa Cruz Biotechnology, CA, USA) antibodies. […]

For another experiment, the system named is hearts subjected to I/R. As to the kind of experiment: Ex vivo cardiac protection from ischemia/reperfusion (Langendorff; infarct size, CPK release). Details: species or system rat. The procedure:
as §1, with “108:869-875). […]” for “108:869-875).”
(§2) First, I/R-induced infarct size after treatment with ΨPDK or δV1-1 (Inagaki et al., 2003, Circulation, 108:869-875), was smaller than that in hearts treated with the control peptide or with ΨδRACK, the δPKC-specific activator or with δV1-5 (FIG. 6A). Second, similar data were obtained when determining the levels of released creatine phosphokinase (CPK), as a marker of myocardial infarction; CPK levels in the ΨPDK- or δV1-1-treated hearts were similar and were lower than those after treatment with control peptide, ΨδRACK or δV1-5 (FIG. 6B).
(§3) To begin determining the contribution of each of the amino acids on the effect of the peptide, Alanine scanning was used (Brunel et al., 2006, J. Virol., 80:1680-1687; Chen et al., J. Pep. Res., 2000, 56:147-156; Brems et al., 1992, Prot. Eng., 5:527-533) (substituting individual amino acid with an alanine). The resultant ΨPDK peptide analogs were then used in the same model of myocardial infarction, using CPK release and JNK phosphorylation as markers for cardiac injury. CPI release into the perfusates and pJNK in the hearts were determined after I/R in the presence of respective peptides and compared to the levels in hearts subjected to I/R in the presence of the control peptide. None of the peptides having a substitution had any significant biological activity (Table 1).

The subject of another experiment is JNK. The experiment in a line: JNK phosphorylation in hearts subjected to I/R (Western blot). Details: species or system rat. The procedure:
as §1
Rat hearts were homogenized in a buffer containing 210 mM mannitol, 70 mM sucrose, 5 mM MOPS and 1 mM EDTA followed by isolation of the mitochondria fraction (described in Churchill et al., 2008, J. Mol. Cell. Cardiol., 46:278-284) and identified by the presence of VDAC (MitoSciences, Eugene, Oreg., USA). The level of phosphorylated and unphosphorylated JNK1/2 was analyzed in the total fraction using respective specific antibodies (Cell Signaling, Danvers, Mass. and Santa Cruz Biotechnology, CA, USA).
as §2, §3
(In western blotting, separated proteins are transferred to a membrane and probed.)

The mark [2] stands for this setting: ex vivo I/R, vs control peptide, ΨδRACK or δV1-5.

No end group written: not given here.

T1 sequence (Q05655 whole entry): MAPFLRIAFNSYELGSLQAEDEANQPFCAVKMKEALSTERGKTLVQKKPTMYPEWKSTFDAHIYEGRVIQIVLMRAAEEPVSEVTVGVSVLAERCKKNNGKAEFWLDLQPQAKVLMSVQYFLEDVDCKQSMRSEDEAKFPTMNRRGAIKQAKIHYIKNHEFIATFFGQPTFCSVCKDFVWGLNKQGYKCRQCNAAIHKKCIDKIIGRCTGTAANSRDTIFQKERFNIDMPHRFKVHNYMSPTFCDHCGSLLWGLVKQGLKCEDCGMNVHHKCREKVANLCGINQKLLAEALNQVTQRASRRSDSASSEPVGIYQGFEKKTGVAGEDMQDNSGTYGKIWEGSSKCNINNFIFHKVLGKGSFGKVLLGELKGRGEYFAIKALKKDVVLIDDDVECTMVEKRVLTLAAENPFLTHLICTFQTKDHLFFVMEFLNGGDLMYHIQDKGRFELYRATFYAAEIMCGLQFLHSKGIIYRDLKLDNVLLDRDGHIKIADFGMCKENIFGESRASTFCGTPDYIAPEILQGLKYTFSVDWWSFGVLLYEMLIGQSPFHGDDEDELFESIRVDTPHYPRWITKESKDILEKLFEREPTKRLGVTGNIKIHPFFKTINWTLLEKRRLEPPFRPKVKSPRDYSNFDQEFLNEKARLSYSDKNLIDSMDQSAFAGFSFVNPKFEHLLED

On to “ALSTER (not fully specified (C-terminus); also: TAT47-57 conjugated via disulfide) [ΨPDK, for cells and hearts conjugated to TAT47-57 via disulfide bond]”, for which, in experiment [1], the MARCKS phosphorylation entry is on record as “did not affect MARCKS phosphorylation”. Moreover, the “stability of δPKC to proteinase K digestion” value with δPKC is given as “more stable to PK digestion”. Further, the ALDH2 phosphorylation result with ALDH2 is “neither ΨPDK nor δV1-1 affected ALDH2 phosphorylation”. Besides, the “cardioprotection / biological activity in ex vivo I/R model (in words)” value with hearts subjected to I/R (CPK release and JNK phosphorylation as markers) is recorded as “exert cardio-protective effects”. Besides, in the experiment on hearts subjected to I/R (ex vivo I/R, release into perfusate, 1 μM peptide), the “CPK (u/L)” value is reported as 335 ± 520 u/L. In addition, in the experiment with hearts subjected to I/R (setting [2]), the “CPK levels (in words)” value was “lower” and the I/R-induced infarct size result is reported as “smaller”. Besides, in the experiment on JNK (ex vivo I/R hearts, 1 μM peptide), the “p-JNK/total JNK” value amounted to 0.4 ± 0.10. The “I/R-induced JNK phosphorylation (in words)” value in the experiment with JNK (ex vivo I/R, vs δV1-5 and ΨδRACK) is on record as “reduced I/R-induced JNK phosphorylation”.
